Experimental data published in patent US20160264527A1 (priority 2011, published 2016).
Structures can show the parent of a compound that is named as a salt. Where two headings read alike, the source gives them in different places.

How the values were obtained:
[1] = tested on: INS832/13 cells; assay: Insulin secretion from INS832/13 cells, 2-h static incubations; format: cell-based; conditions: control 1.95
Method: Materials. Cell culture supplies were from Corning (Corning, N.Y.) and Fisherbrand (Canada). VVWL70 was dissolved in dimethylsulfoxide (DMSO) before their use in insulin secretion experiments. Palmitate sodium salt was from Nu-Check Prep (Elysian, Minn.) and bicinchoninic acid protein assay kit from Pierce (Rockford, Ill.) was used. Stock unlabelled palm itate was prepared at 4 mM in 5% defatted BSA as described elsewhere (Roduit et al. Diabetes (2004) 53 pp 1007-1019,).
Cell culture. INS832/13 cells (Hohmeir et al. Diabetes (2000) 49 pp 424-430,) were cultured at 37° C. in a humidified atmosphere containing 5% CO2 in RPMI 1640 with sodium bicarbonate, supplemented with 10% (v/v) fetal calf serum (Wisent), 10 mM HEPES, pH 7.4, 2 mM L-glutamine, 1 mM sodium pyruvate and 50 μM β-mercaptoethanol (complete RPMI). Cells were grown to 80% confluence. Media were changed to RPMI 1640 containing 3 mM glucose supplemented as the complete RPMI 24 h prior to the experiments. Insulin secretion incubations were conducted in Krebs-Ringer bicarbonate buffer containing 10 mM HEPES, pH 7.4 (KRBH).
Insulin secretion measurement. INS832/13 cells were washed in KRBH containing 1 mM glucose and 0.5% defatted BSA (KRBH 1 G/0.5% BSA) and pre-incubated for 45 min in KRBH 1 G/0.5% BSA in presence of pharmacological agents (at indicated concentrations) or vehicle (DMSO). For examining the effect of VVWL70 (an inhibitor of ABHD6), other compounds identified in table 1, and/or orlistat (lipase inhibitor), the compounds were added first in pre-incubation media and then during incubation at 1 to 20 μM concentration (see Table-2) at 2 mM and 10 mM glucose. Insulin secretion from INS832/13 cells was measured from 2-h static incubations in KRBH containing various glucose concentrations, 0.5% defatted BSA and pharmacological agents or vehicle (DMSO), with or without 35 mM KCl or 0.3 mM palm itate, as specified (see Peyot et al., 2009—Adipose Triglyceride Lipase Is Implicated in Fuel- and Non-fuel-stimulated Insulin Secretion—J Biol Chem, 284: pp. 16848-16859). The experiments were done 3 times, with triplicates of each measurement.

[2] = tested on: CD1 strain mice; assay: Oral glucose tolerance test (OGTT) in streptozotocin-induced mildly diabetic mice; format: in vivo; conditions: 5 mg/kg intraperitoneally daily for three days prior to OGTT; glucose 2 g/kg by gavage; versus vehicle; FIGS. 1 and 2
Method: In this experiment—CD1 strain mice were injected once with streptozotocin (100 mg/kg body wt) to induce mild diabetes. After 4 weeks, the mice were fasted overnight and oral glucose tolerance test (OGTT) was done. Half the animals (5) received ABHD6 inhibitor, VVWL70 for the three days prior to OGTT, daily, intraperitoneally (at 5 mg/kg body weight) and the other half received only vehicle. For OGTT, glucose was given by gavage (2 g/kg body wt), followed by blood collection at indicated time points (on the graph) for the analysis of blood glucose (by glucometer) and plasma insulin (by ELISA).

[3] = tested on: DAGL; assay: Inhibition of DAGL in INS 832/13 β-cell extracts (1,2-dioleoylglycerol hydrolysis, HPLC); format: biochemical; conditions: compound at 10 μM; 60 min at 30° C.; 50 μM 1,2-dioleoylglycerol
Method: (§1) Both ABHD6 and DAGL enzymes were assayed in a single incubation, with separate substrates. Cell extract, 10 μg was incubated in a final volume of 50 μl with 50 μM 1,2-dioleoylglycerol (substrate for DAGL) and 50 μM 1-palmitoylglycerol (substrate for ABHD6). […] Quantification of oleate and palm itate released gave the activities of DAGL and ABHD6, respectively. Incubations contained indicated compounds at 10 μM (or as shown) concentration. VVWL70 was used as a positive control for ABHD6 inhibition and orlistat (ORL) was used as a control for total lipase inhibition.

[4] = molecular target: T1, ABHD6 (Rattus norvegicus, UniProt Q5XI64); assay: biochemical; conditions: read-out: ABHD6 Inhibition %
T1 construct: INS 832/13 β-cell extracts (whole cell) were prepared by sonication; endogenous in cells; host or cells: INS 832/13 β-cells, whole-cell extract
T1 sequence (Q5XI64 1-337): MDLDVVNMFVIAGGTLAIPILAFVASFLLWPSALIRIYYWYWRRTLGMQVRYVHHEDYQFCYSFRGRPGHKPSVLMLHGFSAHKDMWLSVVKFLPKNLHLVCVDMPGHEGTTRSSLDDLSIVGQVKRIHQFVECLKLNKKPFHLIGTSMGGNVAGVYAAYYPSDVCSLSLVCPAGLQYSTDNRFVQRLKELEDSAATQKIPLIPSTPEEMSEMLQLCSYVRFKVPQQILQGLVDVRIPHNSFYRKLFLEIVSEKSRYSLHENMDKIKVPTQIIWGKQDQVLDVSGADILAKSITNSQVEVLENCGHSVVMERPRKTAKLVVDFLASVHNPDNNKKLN
Method: as §1

[5] = compound at 10 μM, 60 min at 30° C., 50 μM 1-palmitoylglycerol

Compound	Insulin secretion (% content) ([1]; compound at 2 μM)	Insulin secretion (% content) ([1]; compound at 5 μM)	Insulin secretion (% content) ([1]; compound at 10 μM)	blood glucose control in OGTT [2]	plasma insulin levels in OGTT [2]	DAGL Inhibition % [3]	inhibition at 10 µM [4]	inhibition at 10 µM [4, 5]
CN(Cc1cccc(-c2ccncc2)c1)C(=O)Oc1ccc(-c2ccc(C(N)=O)cc2)cc1 [Compound 1, reference compound]	3.22 % content	3.97 % content	6.03 % content	able to control their blood glucose levels better than the mice which were given vehicle	increase in plasma insulin levels	–	–	–
CNC(=O)c1ccc(-c2ccc(OC(=O)N(C)Cc3cccc(-c4ccncc4)c3)cc2)cc1 [Compound 2, 4′-(Methylcarbamoyl)biphenyl-4-yl N-methyl-N-(3-(pyridin-4-yl)benzyl)carbamate]	2.25 % content	3.70 % content	6.08 % content	–	–	0%	98%	–
NC(=O)c1ccc(-c2ccc(OC(=O)N(Cc3cccc(-c4ccncc4)c3)c3ccccc3)cc2)cc1 [Compound 3, trifluoroacetate salt]	2.00 % content	2.10 % content	3.05 % content	–	–	0%	–	90%
CNC(=O)c1ccc(-c2ccc(OC(=O)N(C)Cc3cccc(-c4ccccc4)c3)cc2)cc1 [Compound 4, 4′-(Methylcarbamoyl)biphenyl-4-yl N-methyl-N-(3-phenylbenzyl)carbamate]	3.05 % content	3.65 % content	3.82 % content	–	–	0%	70%	–
CN(Cc1cccc(-c2ccncc2)c1)C(=O)Oc1ccc(-c2ccc(C(=O)NC3CC3)cc2)cc1 [Compound 5, 4′-(Cyclopropylcarbamoyl)biphenyl-4-yl N-methyl-N-(3-(pyridin-4-yl)benzyl)carbamate]	2.01 % content	2.05 % content	3.56 % content	–	–	10%	60%	–
CNC(=O)c1ccc(-c2ccc(OC(=O)N(Cc3cccc(-c4ccncc4)c3)C(C)C)cc2)cc1 [Compound 6, 4′-(Methylcarbamoyl)biphenyl-4-yl N-i-propyl-N-(3-(pyridin-4-yl)benzyl)carbamate]	3.10 % content	3.98 % content	5.88 % content	–	–	0%	–	95%
